Assay results published in patent publication US8557849B2 (priority 2008, dated 2013).
Like-named read-outs stand apart in the source and are kept apart here.

Test: Measurement of logP values by HPLC on reversed phase columns (EEC directive 79/831 Annex V.A8)
Assay type: physicochemical
Settings: for chromatographic logP: reversed phase HPLC column
Protocol: Measurement of logP values was performed according EEC directive 79/831 Annex V.A8 by HPLC (High Performance Liquid Chromatography) on reversed phase columns with the following methods: • ^[a] Measurement was done at pH 2.3 with 0.1% phosphoric acid and acetonitrile as eluent. • ^[b] measurement of LC-MS was done at pH 2.7 with 0.1% formic acid in water and with acetonitrile (contains 0.1% formic acid) as eluent with a linear gradient from 10% acetonitrile to 95% acetonitrile. • ^[c] Measurement with LC-MS was done at pH 7.8 with 0.001 molar ammonium hydrogen carbonate solution in water as eluent with a linear gradient from 10% acetonitrile to 95% acetonitrile.

[1] = pH 2.7, HCOOH, given in preparation examples, read-out: logP(HCOOH)
[2] = method [a]: pH 2.3 with 0.1% phosphoric acid and acetonitrile as eluent, read-out: log p
[3] = method [a]: pH 2.3 with 0.1% phosphoric acid and acetonitrile as eluent
[4] = method [b]: LC-MS at pH 2.7 with 0.1% formic acid in water and acetonitrile, linear gradient 10% to 95% acetonitrile

| Compound | chromatographic logP [1] | log p [4] | further results |
| --- | --- | --- | --- |
| CC(O)c1csc(N)n1 (stereo not shown) [1-(2-amino-1,3-thiazol-4-yl)ethanol] | -0.16 |  |  |
| CC(O)c1csc(Br)n1 (stereo not shown) [1-(2-bromo-1,3-thiazol-4-yl)ethanol] | 1.1 |  |  |
| CC(Br)c1csc(Br)n1 (stereo not shown) [2-bromo-4-(1-bromoethyl)-1,3-thiazole] | 2.61 |  |  |
| CC(ON=C(c1ccccc1)c1nnnn1C)c1csc(Br)n1 (stereo not shown) [Example 1] | 3.44 |  | chromatographic logP [2]: 3.44 |
| CC(ON=C(c1ccccc1)c1nnnn1C)c1csc(C#CC2CC2)n1 (stereo not shown) [Example 2, N-{1-[2-(cyclopropylethynyl)-1,3-thiazol-4-yl]ethoxy}-1-(1-methyl-1H-tetrazol-5-yl)-1-phenylmethanimine] | 3.89 |  | chromatographic logP [2]: 3.89 |
| CC(ON=C(c1ccccc1)c1nnnn1C)c1csc(C#CCCCc2ccccc2)n1 (stereo not shown) [Example 3] |  |  | log p [3]: 5.08^[a] |
| CC(ON=C(c1ccccc1)c1nnnn1C)c1csc(C#CCC2CCCC2)n1 (stereo not shown) [Example 4] |  |  | log p [3]: 5.23^[a] |
| CC(ON=C(c1ccccc1)c1nnnn1C)c1csc(C#CCC2CCCCC2)n1 (stereo not shown) [Example 5] |  |  | log p [3]: 5.65^[a] |
| CCCCC#Cc1nc(C(C)ON=C(c2ccccc2)c2nnnn2C)cs1 (stereo not shown) [Example 6] |  |  | log p [3]: 4.73^[a] |
| Cn1nnnc1C(=NOCCc1csc(Br)n1)c1ccccc1 [Example 7] |  |  | log p [3]: 3.25^[a] |
| Cn1nnnc1C(=NOCCc1csc(C#CC2CC2)n1)c1ccccc1 [Example 8] |  |  | log p [3]: 3.69^[a] |
| CCCCC#Cc1nc(CCON=C(c2ccccc2)c2nnnn2C)cs1 [Example 9] |  |  | log p [3]: 4.46^[a] |
| Cn1nnnc1C(=NOC(=O)c1ccccn1)c1ccccc1 [Example 10] |  | 2.13^[b] |  |
| CC(ON=C(c1ccccc1)c1nnnn1C)c1ccccn1 (stereo not shown) [Example 11] |  | 2.19^[b] |  |
| CC(ON=C(c1ccccc1)c1nnnn1C)c1cccc(N)n1 (stereo not shown) [Example 12] |  | 1.34^[b] |  |
| CC(C)CC(=O)Nc1cccc(C(C)O/N=C(/c2ccccc2)c2nnnn2C)n1 (stereo not shown) [Example 13] |  | 3.53^[b] |  |
| CCCCCC(=O)Nc1cccc(C(C)O/N=C(\c2ccccc2)c2nnnn2C)n1 (stereo not shown) [Example 14] |  | 3.83^[b] |  |
| CCCCCOC(=O)Nc1cccc(C(C)O/N=C(\c2ccccc2)c2nnnn2C)n1 (stereo not shown) [Example 15] |  | 4.41^[b] |  |
| CC(ON=C(c1ccccc1)c1nnnn1C)c1cccc(N)n1 (stereo not shown) [Example 16, 6-[1-({[(1-methyl-1H-tetrazol-5-yl)(phenyl)methylene]amino}oxy)ethyl]pyridin-2-amine] | 1.21 |  |  |
| CCCCCC(=O)Nc1cccc(C(C)O/N=C(/c2ccccc2)c2nnnn2C)n1 (stereo not shown) [Example 17] |  | 3.96^[b] |  |
| CCCCCOC(=O)Nc1cccc(C(C)O/N=C(/c2ccccc2)c2nnnn2C)n1 (stereo not shown) [Example 18] |  | 4.54^[b] |  |
| CC(ON=C(c1ccccc1)c1nnnn1C)c1cccc(NC(=O)C(C)(C)C)n1 (stereo not shown) [Example 19, 2,2-dimethyl-N-{6-[1-({[(1-methyl-1H-tetrazol-5-yl)(phenyl)methylene]amino}oxy)ethyl]pyridin-2-yl}propanamide] | 3.64 |  |  |
| CC(ON=C(c1ccccc1)c1nnnn1C)c1cccc(NC(=O)OC(C)(C)C)n1 (stereo not shown) [Example 20, tert-butyl {6-[1-({[(1-methyl-1H-tetrazol-5-yl)(phenyl)methylene]amino}oxy)ethyl]pyridin-2-yl}carbamate] | 4.09 |  |  |
| CC(C)(C)C(=O)Nc1cccc(Br)n1 [N-(6-bromopyridin-2-yl)-2,2-dimethylpropanamide] | 2.84 |  |  |
| CC(Br)c1cccc(NC(=O)C(C)(C)C)n1 (stereo not shown) [N-[6-(1-bromoethyl)pyridin-2-yl]-2,2-dimethylpropanamide] | 3.05 |  |  |
| CC(O)c1cccc(NC(=O)C(C)(C)C)n1 (stereo not shown) [N-[6-(1-hydroxyethyl)pyridin-2-yl]-2,2-dimethylpropanamide] | 1.08 |  |  |
